# Reference: publication PMC11460632, “Chemical modification of hyaluronan oligosaccharides differentially modulates hyaluronan–hyaladherin interactions” (The Journal of Biological Chemistry, 2024)
# Where two headings read alike, the source gives them in different places.
# Tests used:
# [1] = biological target: T1, recombinant human TSG-6 (Homo sapiens, UniProt P19827+P98066); experiment: In vitro HC-transfer assay (IαI + rhTSG-6, Western blot anti-HC1); assay type: biochemical; conditions: 15 μM HA, 1.8 μM IαI, rhTSG-6, 2 h at 37 °C; for Substrate for HC transfer: Table 6
# T1 construct: TSG-6–mediated HC-transfer assays (using full-length TSG6); purchased R&D Systems
# T1 sequence (P98066 18-277): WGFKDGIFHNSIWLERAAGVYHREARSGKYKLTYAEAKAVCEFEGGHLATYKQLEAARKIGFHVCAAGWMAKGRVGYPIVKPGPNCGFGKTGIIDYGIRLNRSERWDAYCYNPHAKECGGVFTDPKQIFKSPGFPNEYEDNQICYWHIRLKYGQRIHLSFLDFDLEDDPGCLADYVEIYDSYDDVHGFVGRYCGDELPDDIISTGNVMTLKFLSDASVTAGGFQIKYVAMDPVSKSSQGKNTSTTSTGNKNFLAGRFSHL
# T1 sequence (P19827 35-672 limits assumed): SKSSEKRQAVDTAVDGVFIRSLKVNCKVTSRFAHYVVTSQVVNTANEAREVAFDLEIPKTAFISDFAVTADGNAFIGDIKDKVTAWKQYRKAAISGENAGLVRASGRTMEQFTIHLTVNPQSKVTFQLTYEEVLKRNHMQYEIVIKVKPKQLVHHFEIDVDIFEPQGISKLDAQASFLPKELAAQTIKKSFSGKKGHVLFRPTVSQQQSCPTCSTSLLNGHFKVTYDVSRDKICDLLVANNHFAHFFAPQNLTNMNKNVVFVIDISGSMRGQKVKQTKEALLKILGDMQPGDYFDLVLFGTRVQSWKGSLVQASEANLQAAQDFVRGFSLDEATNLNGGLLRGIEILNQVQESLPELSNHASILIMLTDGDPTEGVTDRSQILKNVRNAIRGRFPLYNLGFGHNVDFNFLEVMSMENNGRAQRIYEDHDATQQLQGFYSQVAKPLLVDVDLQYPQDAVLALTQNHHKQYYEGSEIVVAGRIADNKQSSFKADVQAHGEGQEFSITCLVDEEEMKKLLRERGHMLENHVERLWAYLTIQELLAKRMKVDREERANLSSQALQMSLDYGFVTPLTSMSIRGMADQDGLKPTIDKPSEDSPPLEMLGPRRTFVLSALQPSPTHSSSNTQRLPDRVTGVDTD
# Method: Covalent transfer of HC from IαI onto unmodified and chemically modified HA oligosaccharides was analyzed using the assay described previously ([26]). All reactions were performed using a buffer of 20 mM Hepes, pH 7.5, 150 mM NaCl, and 5 mM MgCl2. In a “standard” assay, HA oligosaccharides were at 15 μM, human IαI ([97]) 1.8 at μM (based on a molecular weight of 180 kDa), and recombinant human TSG-6 (R&D Systems) at 2.8 μM (based on a molecular weight of 35 kDa). Reaction mixtures were analyzed by SDS-PAGE using 4 to 12% bis-tris polyacrylamide gels (Invitrogen). For Western blot analysis, proteins were transferred onto nitrocellulose membrane (GE Healthcare) and incubated with antisera against HC1 (CP7, 1:10,000; ([98])). Bound primary antibody was detected using goat-anti-rabbit IgG conjugated to IR dye (LI-COR Biosciences) and blots imaged using an Odyssey Clx near-IR fluorescence imaging system (LICOR Biosciences).
# [2] = biological target: T2, hisCD44_HABD^20–169 (Homo sapiens, UniProt P16070); experiment: MST of HA oligosaccharides binding to hisCD44_HABD^20–169; conditions: for Kd: 10 mM Hepes pH 7.5, 150 mM NaCl, 0.05% Tween-20, 25 °C, three titrations, read-out: KD; for % Binding affinity hisCD44_HABD^20–169: Table 6, relative to unmodified oligosaccharide of the same length, by MST
# T2 construct: A novel construct consisting of residues 20 to 169 of human CD44 and an N-terminal six-histidine tag; made in house
# T2 sequence (P16070 20-169): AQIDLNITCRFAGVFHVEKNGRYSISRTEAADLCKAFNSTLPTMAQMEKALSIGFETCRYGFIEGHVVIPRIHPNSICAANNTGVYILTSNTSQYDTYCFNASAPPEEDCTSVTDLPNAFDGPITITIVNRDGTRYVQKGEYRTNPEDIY
# Method: For hisCD44_HABD^20–169, interactions with HA oligosaccharides were assessed using MST. Protein (200 nM) was labeled with 5 μM red-Tris-NTA-650 dye following the manufacturer’s instructions in 10 mM Hepes, pH 7.4, 150 mM NaCl, 0.05% (v/v) Tween-20 (interaction buffer). Stock solutions of HA oligosaccharides (5 mM in interaction buffer) were serially diluted (1:1 in interaction buffer) 16 times before each concentration was mixed with an equal volume of labeled protein (10 nM final concentration hisCD44_HABD^20–169). Samples were loaded into standard glass capillaries (NanoTemper) and thermophoresis measured at 25 °C (with active temperature control) using a Monolith NT.115pico instrument (NanoTemper) running NT Control software (version 1.0.1). All experiments were performed in triplicate and data analyzed with the “KD fit model” in the NT Analysis software (version 2.0.2).
# [3] = biological target: T3, Link_TSG6 (Homo sapiens, UniProt P98066); experiment: ITC of HA oligosaccharides binding to Link_TSG6; conditions: for N / ΔG / ΔH / −TΔS / Kd: 25 °C, 5 mM MES pH 6.0, mean ± SEM; for N: 0.029 mM Link_TSG6, 0.29 mM oligosaccharide; for N / Kd: four titrations; for Kd: read-out: KD; for % Binding affinity Link_TSG6: Table 6, relative to unmodified oligosaccharide of the same length, by ITC
# T3 construct: made in house
# T3 sequence (P98066 36-129 limits assumed): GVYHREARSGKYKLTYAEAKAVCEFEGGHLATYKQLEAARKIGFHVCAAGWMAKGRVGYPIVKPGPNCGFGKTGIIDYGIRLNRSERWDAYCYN
# Method: ITC experiments were performed using a MicroCal PEAQ-ITC instrument (Malvern Instruments). Oligosaccharide stock solutions were prepared at 0.29 mM (in 5 mM MES, pH 6.0) and injected (18 × 2 μl with 120 s spacing between injections) into the cell containing ∼200 μl Link_TSG6 (0.029 mM) in matched buffer at 25 °C. Data were fit to a one site binding model, after subtracting the heats from the last three injections to account for heat of dilution of the oligosaccharide into buffer. Each oligosaccharide was analyzed in four independently performed ITC experiments.
Compound,Substrate for HC transfer [1],"% HAx^AN: percentage of binding affinity (KB) compared to the unmodified oligosaccharide of the same length ([2]; Table 5, MST)",% Binding affinity hisCD44_HABD^20–169 [2],"−TΔS ([3]; Table 4, ITC)",% Binding affinity Link_TSG6 [3],% of binding to hisCD44_HABD^20–169 compared to the unmodified oligosaccharide of the same length ([2]; MST),"Kd ([2]; Table 5, MST, mean ± SD)","N ([3]; Table 4, ITC)","ΔG ([3]; Table 4, ITC)","ΔH ([3]; Table 4, ITC)","Kd ([3]; Table 4, ITC)",also measured
"CC(=O)N[C@H]1[C@H](O[C@H]2[C@H](O)[C@@H](O)[C@H](O[C@H]3[C@H](O)[C@@H](CO)O[C@@H](O[C@H]4[C@H](O)[C@@H](O)[C@H](O[C@H]5[C@H](O)[C@@H](CO)OC(O)[C@@H]5NC(C)=O)O[C@@H]4C(=O)O)[C@@H]3NC(C)=O)O[C@@H]2C(=O)O)O[C@H](CO)[C@@H](O)[C@@H]1O[C@@H]1O[C@H](C(=O)O)[C@@H](O)[C@H](O)[C@H]1O (some centres unmarked) [HA6^AN, reference compound]",No,100%,100%,0.162 ± 0.21 kcal•mol^a1,100%,,,,,,,"Activity as substrate for HC transfer (text) ([1]; Western blot anti-HC1): did not; % HAn^AN: percentage of binding affinity (KB) compared to the unmodified oligosaccharide of the same length ([2]; Table 2, MST): 100%; Kd ([2]; Table 2, MST, mean (±SD)): 103 µM; N ([3]; Table 1, ITC): 1.04 ± 0.04; ΔG ([3]; Table 1, ITC): -8.13 ± 0.02 kcal/mol; ΔH ([3]; Table 1, ITC): -8.29 ± 0.19 kcal/mol; −TΔS ([3]; Table 1, ITC): 0.162 ± 0.21 kcal/mol; Kd ([3]; Table 1, ITC): 1.09 ± 0.04 µM"
COc1ccc(C(=O)O)c(NC[C@H](NC(C)=O)[C@@H](O[C@@H]2O[C@H](C(=O)O)[C@@H](O[C@@H]3O[C@H](CO)[C@@H](O)[C@H](O[C@@H]4O[C@H](C(=O)O)[C@@H](O[C@@H]5O[C@H](CO)[C@@H](O)[C@H](O[C@@H]6O[C@H](C(=O)O)[C@@H](O[C@@H]7O[C@H](CO)[C@@H](O)[C@H](O[C@@H]8O[C@H](C(=O)O)[C@@H](O)[C@H](O)[C@H]8O)[C@H]7NC(C)=O)[C@H](O)[C@H]6O)[C@H]5NC(C)=O)[C@H](O)[C@H]4O)[C@H]3NC(C)=O)[C@H](O)[C@H]2O)[C@H](O)[C@H](O)CO)c1 [HA8-2A4MBA],Yes,141%,141%,−0.16 ± 1.94 kcal•mol^a1,21%,141%,36 ± 9 µM,1.04 ± 0.08,-8.23 ± 0.40 kcal/mol,-8.06 ± 1.55 kcal/mol,1.46 ± 0.96 µM,Fold increase in affinity for CD44_HABD compared to the unmodified oligosaccharide ([2]; MST): 1.4 fold; % of binding to Link_TSG6 compared to the unmodified oligosaccharide of the same length ([3]; ITC): 21%; Fold reduction in affinity for Link_TSG6 compared to the unmodified oligosaccharide ([3]; ITC): 4.8 fold
CC(=O)N[C@H]1[C@H](O[C@H]2[C@H](O)[C@@H](O)[C@H](O[C@H]3[C@H](O)[C@@H](CO)O[C@@H](O[C@H]4[C@H](O)[C@@H](O)[C@H](O[C@H]5[C@H](O)[C@@H](CO)O[C@@H](O[C@H]6[C@H](O)[C@@H](O)[C@H](O[C@@H]([C@H](O)[C@H](O)CO)[C@H](CNc7cc[nH]n7)NC(C)=O)O[C@@H]6C(=O)O)[C@@H]5NC(C)=O)O[C@@H]4C(=O)O)[C@@H]3NC(C)=O)O[C@@H]2C(=O)O)O[C@H](CO)[C@@H](O)[C@@H]1O[C@@H]1O[C@H](C(=O)O)[C@@H](O)[C@H](O)[C@H]1O [HA8-3APY],Yes,23%,23%,−3.28 ± 0.28 kcal•mol^a1,115%,23%,220 ± 22 µM,1.19 ± 0.06,-8.97 ± 0.07 kcal/mol,-5.70 ± 0.34 kcal/mol,0.27 ± 0.03 µM,
